How the values were obtained:
[1] = tested on: house fly (Musca domestica); details: in vivo, topical_or_ocular, 1440 min
Experimental: Investigation of Synergistic Activity on House Fly (Musca domestica) Following Topical Application
In two parallel experiments 10 female. 2-4 day old house flies were treated on the vental side of their thorax with 0.2 μl of the test solution, with the help of Hamilton MicroLab P microdispenser. Beside fixed synergist dose of 1000 ng/fly the animals were treated with carbofuran at a dose of 20 ng/fly. For solvent cellosolve was used. Selection and counting of the flies were performed under the action of CO2. After treatment the flies were kept in plastic cups covered with tulle. Mortality after 24 hours was expressed in %.

[2] = tested on: cotton bollworm (Helicoverpa armigera); test: Synergistic activity on cotton bollworm following topical application; details: in vivo
Experimental: Investigation of Synergistic Activity on Cotton Bollworm (Helicoverpa armigera) Following Topical Application
Treatment was performed similarity as described in Example 1. but L2 stadium grubs of cotton bollworms (Helicoverpa armigera) were treated as test animals. From the 24 hour dose--mortality data the LD50 (ng/grub) values were determined using probit analysis. None of the synergists acted at the applied 1000 ng/grub dose. Synergist ratio was calculated as the quotient of the LD50 values of carbofuran administered alone, and with the synergist. The experiments were performed in 2-4 replica.

flies = test: Comparative investigations with known reference synergists on flies treated with carbofuran; assay type: in vivo; details: flies treated with carbofuran and 1000 ng of the synergist
From the text: These SR50 ratios were compared to those of the new compounds prepared by us.

[3] = tested on: house fly (Musca domestica); test: Effect of the active ingredient:synergist ratio on the synergistic activity (flies)
Experimental: Effect of the Active Ingredient:Synergist Ratio on the Synergistic Activity
Treatment was performed as described in Example 1. using Hamilton MicroLab P microdispenser. In two parallel experiments 10 female -3 day old flies were treated on the ventral side of their thorax with 0.2 μl test solution. Beside 1000-400-200-80 ng/fly fixed doses of the synergist they were treated with constant 20 ng/fly CARBOFURAN®. Selection and counting of the flies were performed under the action of CO2. After treatment the flies were kept in plastic cups covered with tulle. After 24 hours mortality % was recorded. Depending on the results the experiments were performed in 2-4 replica.

[4] = tested on: resistant house fly, INSEL strain; test: Synergistic activity on resistant house fly, INSEL strain; assay type: in vivo, Musca domestica; details: active ingredient alone
Experimental: Investigation of Synergistic Activity on Resistant House Fly (Musca domestica) Populations
Investigation was carried out as described in biological Example 1. LD50 values and synergist ratios were determined as given in Example 2.

[5] = carbofuran 20 ng/fly + synergist 80 ng/fly
[6] = carbofuran 20 ng/fly + synergist 200 ng/fly
[7] = carbofuran 20 ng/fly + synergist 400 ng/fly
[8] = house fly, in vivo, topical_or_ocular

| Compound | mortality % [1] | Synergist ratio [2] | Synergist ratio SR50 (flies) | other results |
| --- | --- | --- | --- | --- |
| CC#CCNC(=O)c1ccc2c(c1)OCO2 [Compound 523, N-(2-butynyl) 3,4-methylene-dioxy-benzamide] | 17% | > 5 | – | – |
| C#CCOCc1ccc(OC)c(OC)c1 [(2-propynyloxy-methyl)-3,4-dimethoxy-benzene] | – | – | 6.58 | – |
| CC#CCOC1CCCc2ccccc21 (stereo not shown) [Compound 498, 1-(2-Butynyloxy)-1,2,3,4-tetrahydro-naphthalene] | 70% | > 5 | – | – |
| CC#CCOC(C)c1cccc2ccccc12 (stereo not shown) [Compound 292, 1-[1-(2-butynyloxy)-ethyl]-naphthalene] | 72% | > 5 | – | – |
| CC#CCCOc1ccc2ccccc2c1 [2-naphthyl 3-pentynyl ether] | – | – | 9.97 | – |
| C#CCOCc1c(Cl)cccc1Cl [(2,6-dichlorophenyl)methyl 2-propynyl ether] | – | – | 20.92 | – |
| C#CCNC(=O)c1cccc2ccccc12 [Compound 541, N-(2-Propynyl)-1-naphthamide] | 46% | > 5 | – | – |
| CC#CCNC(=O)c1ccc2ccccc2c1 [Compound 535, N-(2-Butynyl)-2-naphthamide] | 27% | > 5 | – | – |
| CC#CCOC1CCc2ccccc21 (stereo not shown) [Compound 479, 1-(2-Butynyloxy)-indane] | 58% | > 5 | – | – |
| CC#CCON=C(C)c1ccc(OC)c(OC)c1 [Compound 572, 3,4-Dimethoxy-acetophenonoxym-(2-butynyl)-ether] | 55% | > 5 | – | – |
| C#CCOc1cccc2ccccc12 [1-naphthyl 2-propargyl ether] | – | – | 6.52 | – |
| CC#CCOCC1Cc2ccccc2O1 (stereo not shown) [Compound 539, 2-(2-butynyloxy-methyl)-2,3-dihydro-benzofuran] | 48% | > 5 | – | – |
| C#CCOC(=O)c1ccc2c(c1)OCO2 [Compound 501, 2-Propynyl 1,3-benzodioxol-5-carboxylate] | 53% | > 5 | – | 24 hour mortality (%) [3, 5]: 60%; 24 hour mortality (%) [3, 6]: 75%; 24 hour mortality (%) [3, 7]: 80%; 24 hour mortality (%) [3, 8]: 80% |
| CC#CCCOc1ccc([N+](=O)[O-])cc1 [Compound 540, 1-(3-pentynyloxy)-4-nitro-benzene] | 60% | > 5 | – | – |
| 5-[(2-propynyl)-methyl]-1,3-benzodioxole | – | – | 10.60 | – |
| CC#CCOC(c1ccccc1)c1ccc2c(c1)OCO2 (stereo not shown) [Compound 555, 5-[(But-2-ynyloxy)-phenyl-methyl]-1,3-benzodioxole] | 90% | > 5 | – | – |
| C=CCC1=C(C)[C@@H](OC(=O)[C@@H]2[C@@H](C=C(C)C)C2(C)C)CC1=O [ESBIOL, reference compound] | – | – | – | LD50 [4]: 10653 ng/fly |
| C#CCCOc1ccc([N+](=O)[O-])cc1 [Compound 547, 1-(3-butynyloxy)-4-nitro-benzene] | 47% | – | – | – |
| CC#CCOC(c1cccc2ccccc12)C(C)C (stereo not shown) [Compound 472, 1-[2-methyl-1-(2-butynyloxy)-propyl]-naphthalene] | 68% | > 5 | – | – |
| CC#CCCOc1cccc2c1OC(C)(C)C2 [Compound 418, 2,3-dihydro-2,2-dimethyl-7-(3-pentynyloxy)-benzofuran] | 63% | > 5 | 20.5 | – |
| C#CCN(C)C(C)c1ccc2ccccc2c1 (stereo not drawn) [Compound 251, N-α-dimethyl-N-2-propynyl-β-naphthyl-methylamine] | 37% | > 5 | – | – |

| Compound | mortality % [1] | Synergist ratio [2] | Synergist ratio SR50 (flies) | other results |
| --- | --- | --- | --- | --- |
| C#CCOCc1cccc2ccccc12 [1-naphthylmethyl 2-propynyl ether] | – | – | 5.28 | – |
| CC#CCO[C@H](C)c1ccc2ccccc2c1 [Compound 455, R-(+)-2-[1-(2-butynyloxy)-ethyl]-naphthalene] | 70% | > 5 | – | 24 hour mortality (%) [3, 5]: 25%; 24 hour mortality (%) [3, 6]: 48%; 24 hour mortality (%) [3, 7]: 63%; 24 hour mortality (%) [3, 8]: 77% |
| CC#CCOC(c1ccc2c(c1)OCO2)C1CCCCC1 (stereo not shown) [Compound 554, 5-[(But-2-ynyloxy)-cyclohexyl-methyl]-1,3-benzodioxole] | 58% | > 5 | – | – |
| CC#CCN1C(=O)c2ccccc2C1=O [Compound 537, N-(But-2-ynyl)-phthalimide] | – | > 5 | – | – |
| CC#CCOc1ccc2ccccc2c1 [2-naphthyl 2-butynyl ether] | – | – | 7.72 | – |
| C#CCOC(C)c1ccc2ccccc2c1 (stereo not shown) [Compound 256, 2-[1-(2-propynyloxy)-ethyl]-naphthalene] | 32% | > 5 | – | – |
| C#CCCOc1cccc2ccccc12 [1-naphthyl 3-butynyl ether] | – | – | 7.95 | – |
| CC#CCO[C@H](C)c1cccc2ccccc12 [Compound 331, R-(+)-1-[1-(2-butynyloxy)-ethyl]-naphthalene] | 72% | > 5 | – | – |
| CC#CCO[C@@H](C)c1cccc2ccccc12 [Compound 330, S-(-)-1-[1-(2-butynyloxy)-ethyl]-naphthalene] | 62% | > 5 | – | – |
| CC#CCO[C@@H](C)c1ccc2ccccc2c1 [Compound 456, S-(-)-2-[1-(2-butynyloxy)-ethyl]-naphthalene] | 47% | > 5 | – | – |
| C#CCOc1cccc2c1OC(C)(C)C2 [2,3-dihydro-2,2-dimethyl-7-(2-propynyloxy)benzofurane] | – | – | 1.8 | – |
| C#CCOCC1COc2ccccc2O1 (stereo not shown) [2-[(2-propynyloxy)methyl]-1,4-benzodioxane] | – | – | 5.58 | – |
| C#CC(C)OCc1cccc2ccccc12 (stereo not shown) [Compound 389] | 27% | > 5 | – | – |
| C#CCCOc1cccc2c1OC(C)(C)C2 [Compound 377, 2,3-dihydro, 2,2-dimethyl-7-(3-butynyloxy)-benzofuran] | 57% | > 5 | – | – |
| CC#CCOC(CC)c1cccc2ccccc12 (stereo not shown) [Compound 454, 1-[1-(2-butynyloxy)-propyl]-naphthalene] | 75% | > 5 | – | 24 hour mortality (%) [3, 5]: 40%; 24 hour mortality (%) [3, 6]: 45%; 24 hour mortality (%) [3, 7]: 60%; 24 hour mortality (%) [3, 8]: 75% |
| CC#CCOC(C)c1ccc2ccccc2c1 (stereo not shown) [Compound 293, 2-[1-(2-butynyloxy)-ethyl]-naphthalene] | 45% | > 5 | – | – |
| C#CCON=C(C)c1cccc2ccccc12 [1-acetonaphthon-oxim (2-propynyl) ether] | – | – | 7.79 | – |
| C#CCOC(=O)c1cccc2ccccc12 [2-propynyll-naphthyl-carboxylate] | – | – | 4.11 | – |
| CC#CCNC(=O)c1cccc2ccccc12 [Compound 542, N-(2-Butynyl)-1-naphthamide] | 42% | > 5 | – | – |
| C#CCO[C@@H](C)c1ccc2ccccc2c1 [Compound 474, S-(-)-2-[1-(2-propynyloxy)-ethyl]-naphthalene] | 50% | > 5 | – | – |
| C#CCO[C@H](C)c1ccc2ccccc2c1 [Compound 475, R-(+)-2-1[1-(2-propynyloxy)-ethyl]-naphthalene] | 47% | > 5 | – | – |

Source: patent US6277867A, “Pesticide compounds, compositions and process for the preparation thereof” (priority 1995, dated 2001)
